# Measurements reported in patent US20100267561A1, “HERBICIDAL PYRIDAZINONE DERIVATIVES” (priority 2007, published 2010).
# Legend:
# Type in all cases: in vivo
# [1] = system: giant foxtail (Setaria faberi); test: Test A pre-/postemergence plant response
# Method in brief: (§1)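 Ratings run 0–100 (100 = complete control), assigned visually against untreated controls roughly 10 days after treatment in a greenhouse. Compounds, formulated in non-phytotoxic solvent containing surfactant, were applied as a soil-directed preemergence spray and concurrently postemergence to one- to two-leaf plants 2–10 cm tall.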
# [2] = system: velvetleaf (Abutilon theophrasti); test: Test A pre-/postemergence plant response
# Method in brief: as §1
# [3] = system: wheat (Triticum aestivum); test: Test A pre-/postemergence plant response
# Method in brief: as §1
# [4] = system: Italian ryegrass (Lolium multiflorum); test: Test C pre-/postemergence plant response
# Method in brief: (§2)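 Pre- and postemergence treatment, visual 0–100 rating vs controls at 15–25 days.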
# [5] = system: annual bluegrass (Poa annua); test: Test C pre-/postemergence plant response
# Method in brief: as §2
# [6] = system: blackgrass (Alopecurus myosuroides); test: Test C pre-/postemergence plant response
# Method in brief: as §2
# [7] = system: canarygrass (Phalaris minor); test: Test C pre-/postemergence plant response
# Method in brief: as §2
# [8] = system: green foxtail (Setaria viridis); test: Test C pre-/postemergence plant response
# Method in brief: as §2
# [9] = system: pigweed (Amaranthus retroflexus); test: Test C pre-/postemergence plant response
# Method in brief: as §2
# [10] = system: spring barley (Hordeum vulgare); test: Test C pre-/postemergence plant response
# Method in brief: as §2
# [11] = system: spring wheat (Triticum aestivum); test: Test C pre-/postemergence plant response
# Method in brief: as §2
# [12] = system: wild mustard (Sinapis arvensis); test: Test C pre-/postemergence plant response
# Method in brief: as §2
# [13] = system: windgrass (Apera spica-venti); test: Test C pre-/postemergence plant response
# Method in brief: as §2
# [14] = system: winter barley (Hordeum vulgare); test: Test C pre-/postemergence plant response
# Method in brief: as §2
# [15] = system: winter wheat (Triticum aestivum); test: Test C pre-/postemergence plant response
# Method in brief: as §2
# [16] = Postemergence, 31 g ai/ha, 0 to 100 scale, 0 no effect, 100 complete control
# [17] = Postemergence, 125 g ai/ha, 0 to 100 scale, 0 no effect, 100 complete control
# [18] = Preemergence, 31 g ai/ha, 0 to 100 scale, 0 is no effect, 100 is complete control
# [19] = Preemergence, 125 g ai/ha, 0 to 100 scale (0 no effect, 100 complete control)
# [20] = Postemergence, 8 g ai/ha, scale 0 to 100, 0 no effect, 100 complete control
# [21] = Postemergence, 16 g ai/ha, scale 0 to 100, 0 no effect, 100 complete control
# [22] = Postemergence, 31 g ai/ha, scale 0 to 100, 0 no effect, 100 complete control
# [23] = Postemergence, 62 g ai/ha, scale 0 to 100, 0 no effect, 100 complete control
# [24] = Preemergence, 8 g ai/ha, scale 0 to 100 (0 no effect, 100 complete control)
# [25] = Preemergence, 16 g ai/ha, scale 0 to 100 (0 no effect, 100 complete control)
# [26] = Preemergence, 31 g ai/ha, scale 0 to 100 (0 no effect, 100 complete control)
# [27] = Preemergence, 62 g ai/ha, scale 0 to 100, 0 no effect, 100 complete control
smiles,measurement,setting,value
Cc1cc(-c2ccc(C(F)(F)F)c(F)c2)nn1-c1c(O)c(C(F)(F)F)nn(C)c1=O [Compound 44],"Plant response rating, Foxtail, Giant",[1]; [16],90
same,"Plant response rating, Foxtail, Giant",[1]; [17],100
same,"Plant response rating, Foxtail, Giant",[1]; [18],80
same,"Plant response rating, Foxtail, Giant",[1]; [19],100
same,"Plant response rating, Velvetleaf",[2]; [16],0
same,"Plant response rating, Velvetleaf",[2]; [17],0
same,"Plant response rating, Velvetleaf",[2]; [18],0
same,"Plant response rating, Velvetleaf",[2]; [19],0
same,"Plant response rating, Wheat",[3]; [16],70
same,"Plant response rating, Wheat",[3]; [17],80
same,"Plant response rating, Wheat",[3]; [18],40
same,"Plant response rating, Wheat",[3]; [19],80
same,"Plant response rating, Ryegrass, Italian",[4]; [20],90
same,"Plant response rating, Ryegrass, Italian",[4]; [21],98
same,"Plant response rating, Ryegrass, Italian",[4]; [22],100
same,"Plant response rating, Ryegrass, Italian",[4]; [23],100
same,"Plant response rating, Ryegrass, Italian",[4]; [24],90
same,"Plant response rating, Ryegrass, Italian",[4]; [25],100
same,"Plant response rating, Ryegrass, Italian",[4]; [26],100
same,"Plant response rating, Ryegrass, Italian",[4]; [27],100
same,"Plant response rating, Bluegrass",[5]; [20],0
same,"Plant response rating, Bluegrass",[5]; [21],0
same,"Plant response rating, Bluegrass",[5]; [22],0
same,"Plant response rating, Bluegrass",[5]; [23],0
same,"Plant response rating, Bluegrass",[5]; [24],0
same,"Plant response rating, Bluegrass",[5]; [25],0
same,"Plant response rating, Bluegrass",[5]; [26],0
same,"Plant response rating, Bluegrass",[5]; [27],0
same,"Plant response rating, Blackgrass",[6]; [20],90
same,"Plant response rating, Blackgrass",[6]; [21],98
same,"Plant response rating, Blackgrass",[6]; [22],100
same,"Plant response rating, Blackgrass",[6]; [23],100
same,"Plant response rating, Blackgrass",[6]; [25],25
same,"Plant response rating, Blackgrass",[6]; [26],100
same,"Plant response rating, Blackgrass",[6]; [27],100
same,"Plant response rating, Canarygrass",[7]; [20],75
same,"Plant response rating, Canarygrass",[7]; [21],80
same,"Plant response rating, Canarygrass",[7]; [22],90
same,"Plant response rating, Canarygrass",[7]; [23],100
same,"Plant response rating, Canarygrass",[7]; [24],30
same,"Plant response rating, Canarygrass",[7]; [25],65
same,"Plant response rating, Canarygrass",[7]; [26],75
same,"Plant response rating, Canarygrass",[7]; [27],85
same,"Plant response rating, Foxtail, Green",[8]; [20],50
same,"Plant response rating, Foxtail, Green",[8]; [21],95
same,"Plant response rating, Foxtail, Green",[8]; [22],98
same,"Plant response rating, Foxtail, Green",[8]; [23],100
same,"Plant response rating, Foxtail, Green",[8]; [24],15
same,"Plant response rating, Foxtail, Green",[8]; [25],90
same,"Plant response rating, Foxtail, Green",[8]; [26],100
same,"Plant response rating, Foxtail, Green",[8]; [27],100
same,"Plant response rating, Pigweed",[9]; [20],0
same,"Plant response rating, Pigweed",[9]; [21],0
same,"Plant response rating, Pigweed",[9]; [22],0
same,"Plant response rating, Pigweed",[9]; [23],0
same,"Plant response rating, Pigweed",[9]; [24],0
same,"Plant response rating, Pigweed",[9]; [25],20
same,"Plant response rating, Pigweed",[9]; [26],20
same,"Plant response rating, Pigweed",[9]; [27],20
same,"Plant response rating, Barley, Spring",[10]; [20],60
same,"Plant response rating, Barley, Spring",[10]; [21],95
same,"Plant response rating, Barley, Spring",[10]; [22],95
same,"Plant response rating, Barley, Spring",[10]; [23],98
same,"Plant response rating, Barley, Spring",[10]; [24],0
same,"Plant response rating, Barley, Spring",[10]; [25],60
same,"Plant response rating, Barley, Spring",[10]; [26],60
same,"Plant response rating, Barley, Spring",[10]; [27],75
same,"Plant response rating, Wheat, Spring",[11]; [20],70
same,"Plant response rating, Wheat, Spring",[11]; [21],95
same,"Plant response rating, Wheat, Spring",[11]; [22],95
same,"Plant response rating, Wheat, Spring",[11]; [23],100
same,"Plant response rating, Wheat, Spring",[11]; [24],0
same,"Plant response rating, Wheat, Spring",[11]; [25],20
same,"Plant response rating, Wheat, Spring",[11]; [26],70
same,"Plant response rating, Wheat, Spring",[11]; [27],75
same,"Plant response rating, Mustard, Wild",[12]; [20],0
same,"Plant response rating, Mustard, Wild",[12]; [21],0
same,"Plant response rating, Mustard, Wild",[12]; [22],0
same,"Plant response rating, Mustard, Wild",[12]; [23],0
same,"Plant response rating, Mustard, Wild",[12]; [24],0
same,"Plant response rating, Mustard, Wild",[12]; [25],0
same,"Plant response rating, Mustard, Wild",[12]; [26],0
same,"Plant response rating, Windgrass",[13]; [20],50
same,"Plant response rating, Windgrass",[13]; [21],90
same,"Plant response rating, Windgrass",[13]; [22],95
same,"Plant response rating, Windgrass",[13]; [23],100
same,"Plant response rating, Windgrass",[13]; [24],100
same,"Plant response rating, Windgrass",[13]; [25],100
same,"Plant response rating, Windgrass",[13]; [26],100
same,"Plant response rating, Windgrass",[13]; [27],100
same,"Plant response rating, Barley, Winter",[14]; [20],20
same,"Plant response rating, Barley, Winter",[14]; [21],75
same,"Plant response rating, Barley, Winter",[14]; [22],90
same,"Plant response rating, Barley, Winter",[14]; [23],95
same,"Plant response rating, Barley, Winter",[14]; [24],0
same,"Plant response rating, Barley, Winter",[14]; [25],50
same,"Plant response rating, Barley, Winter",[14]; [26],75
same,"Plant response rating, Barley, Winter",[14]; [27],75
same,"Plant response rating, Wheat, Winter",[15]; [20],75
same,"Plant response rating, Wheat, Winter",[15]; [21],80
same,"Plant response rating, Wheat, Winter",[15]; [22],95
same,"Plant response rating, Wheat, Winter",[15]; [23],98
same,"Plant response rating, Wheat, Winter",[15]; [24],40
same,"Plant response rating, Wheat, Winter",[15]; [25],65
same,"Plant response rating, Wheat, Winter",[15]; [27],70
